Reference: patent US12344600B2, “c-Myc mRNA translation modulators and uses thereof in the treatment of cancer” (Anima Biotech Inc., priority 2022, dated 2025)

Test system: c-Myc
Assay: c-Myc immunofluorescence assay
Format: cell-based, human
Conditions: A549 cells, 24 hours, anti-c-Myc immunofluorescence
In short: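 Read-out is imaged c-Myc immunofluorescence, nucleus-segmented, in A549 lung carcinoma cells exposed to compound dose series for 24 h after 48 h growth. Fixation 4% paraformaldehyde, Triton permeabilization, antibody staining at room temperature; EC50 from logistic fit of signal versus concentration.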

SMILES | Myc Efficacy (−LogEC50)
COc1ccc(-c2noc(N3CCC(C(=O)NCC4CCN(CC5CCOCC5)C4)CC3)n2)cc1 (stereo not drawn) [Compound 355, 1-(3-(4-methoxyphenyl)-1,2,4-oxadiazol-5-yl)-N-((1-((tetrahydro-2H-pyran-4-yl)methyl)pyrrolidin-3-yl)methyl)piperidine-4-carboxamide] | + (+ >3 and <5)
COc1ccc(-c2noc([C@H]3CC[C@@H](C(=O)O)CC3)n2)cc1 [Compound 173, (1s,4s)-4-(3-(4-methoxyphenyl)-1,2,4-oxadiazol-5-yl)cyclohexane-1-carboxylic acid] | + (+ >3 and <5)
COc1ccc(-c2noc(N3CCC(C(=O)NCC4CCN(c5ccccc5)C4)CC3)n2)cc1 (stereo not drawn) [Compound 234, 1-(3-(4-methoxyphenyl)-1,2,4-oxadiazol-5-yl)-N-((1-phenylpyrrolidin-3-yl)methyl)piperidine-4-carboxamide] | + (+ >3 and <5)
COc1ccc(-c2noc(N3CCC(C(=O)NCC4CCN(C)C4)CC3)n2)cc1 (stereo not drawn) [Compound 219, 1-(3-(4-methoxyphenyl)-1,2,4-oxadiazol-5-yl)-N-((1-methylpyrrolidin-3-yl)methyl)piperidine-4-carboxamide] | − (− ≤3)
COc1ccc(-c2coc(N3CCC(C(=O)NCc4cccnc4)CC3)n2)cc1 [Compound 201, 1-(4-(4-methoxyphenyl)oxazol-2-yl)-N-(pyridin-3-ylmethyl)piperidine-4-carboxamide] | + (+ >3 and <5)
COc1ccc(-c2noc(N3CCC(C(=O)NCC4CCN(Cc5cc[nH]c5)C4)CC3)n2)cc1 (stereo not drawn) [Compound 325, N-((1-((1H-pyrrol-3-yl)methyl)pyrrolidin-3-yl)methyl)-1-(3-(4-methoxyphenyl)-1,2,4-oxadiazol-5-yl)piperidine-4-carboxamide] | + (+ >3 and <5)
COc1ccc(-c2noc(N3CCC(C(=O)NC(C)Cc4c[nH]c5ccccc45)CC3)n2)cc1 (stereo not drawn) [Compound 310, N-(1-(1H-indol-3-yl)propan-2-yl)-1-(3-(4-methoxyphenyl)-1,2,4-oxadiazol-5-yl)piperidine-4-carboxamide] | + (+ >3 and <5)
COc1ccc(-c2noc(N3CCC(C(=O)NCC4CCN(C[C@@H]5CCCN5C)C4)CC3)n2)cc1 (stereo partly drawn) [Compound 369, 1-(3-(4-methoxyphenyl)-1,2,4-oxadiazol-5-yl)-N-((1-(((S)-1-methylpyrrolidin-2-yl)methyl)pyrrolidin-3-yl)methyl)piperidine-4-carboxamide] | + (+ >3 and <5)
COc1ccc(-c2noc(N3CCC(C(=O)NCC4CCN(Cc5nccs5)C4)CC3)n2)cc1 (stereo not drawn) [Compound 364, 1-(3-(4-methoxyphenyl)-1,2,4-oxadiazol-5-yl)-N-((1-(thiazol-2-ylmethyl)pyrrolidin-3-yl)methyl)piperidine-4-carboxamide] | + (+ >3 and <5)
COc1ccc(-c2noc(N3CCC(C(=O)NCc4nc5ccccc5[nH]4)CC3)n2)cc1 [Compound 419, N-((1H-benzo[d]imidazol-2-yl)methyl)-1-(3-(4-methoxyphenyl)-1,2,4-oxadiazol-5-yl)piperidine-4-carboxamide] | ++ (++ ≥5 and <6)
COc1ccc(-c2noc(N3CCC(C(=O)NCc4cccnc4)CC3)n2)cc1 [Compound 116, 1-(3-(4-methoxyphenyl)-1,2,4-oxadiazol-5-yl)-N-(pyridin-3-ylmethyl)piperidine-4-carboxamide] | + (+ >3 and <5)
COc1ccc(-c2noc([C@H]3CC[C@H](C(=O)O)CC3)n2)cc1 [Compound 175, (1r,4r)-4-(3-(4-methoxyphenyl)-1,2,4-oxadiazol-5-yl)cyclohexane-1-carboxylic acid] | + (+ >3 and <5)
COc1ccc(-c2noc(C3CCC(C(=O)NCC4CCN(CCO)C4)CC3)n2)cc1 (stereo not drawn) [Compound 197, (1r,4r)-N-((1-(2-hydroxyethyl)pyrrolidin-3-yl)methyl)-4-(3-(4-methoxyphenyl)-1,2,4-oxadiazol-5-yl)cyclohexane-1-carboxamide] | + (+ >3 and <5)
COc1ccc(-c2noc(N3CCC(C(=O)N4CCN(C)CC4)CC3)n2)cc1 [Compound 204, (1-(3-(4-methoxyphenyl)-1,2,4-oxadiazol-5-yl)piperidin-4-yl)(4-methylpiperazin-1-yl)methanone] | + (+ >3 and <5)
COc1ccc(-c2noc(N3CCC(C(=O)NCC4CCN(CC5CCN(C)CC5)C4)CC3)n2)cc1 (stereo not drawn) [Compound 353, 1-(3-(4-methoxyphenyl)-1,2,4-oxadiazol-5-yl)-N-((1-((1-methylpiperidin-4-yl)methyl)pyrrolidin-3-yl)methyl)piperidine-4-carboxamide] | ++ (++ ≥5 and <6)
COc1ccc(-c2noc(N3CCC(C(=O)NCC4CCCc5cccnc54)CC3)n2)cc1 (stereo not drawn) [Compound 301, 1-(3-(4-methoxyphenyl)-1,2,4-oxadiazol-5-yl)-N-((5,6,7,8-tetrahydroquinolin-8-yl)methyl)piperidine-4-carboxamide] | + (+ >3 and <5)
COc1ccc(-c2noc(CCC(=O)NC[C@H]3CCN(Cc4ccc(C)cc4)C3)n2)cc1 [Compound 149, (R)-3-(3-(4-methoxyphenyl)-1,2,4-oxadiazol-5-yl)-N-((1-(4-methylbenzyl)pyrrolidin-3-yl)methyl)propanamide] | ++ (++ ≥5 and <6)
COc1cccc(-c2noc(N3CCC(C(=O)NCc4cccnc4)CC3)n2)c1 [Compound 180, 1-(3-(3-methoxyphenyl)-1,2,4-oxadiazol-5-yl)-N-(pyridin-3-ylmethyl)piperidine-4-carboxamide] | + (+ >3 and <5)
CCCN1CCC(CNC(=O)C2CCN(c3nc(-c4ccc(OC)cc4)no3)CC2)C1 (stereo not drawn) [Compound 386, 1-(3-(4-methoxyphenyl)-1,2,4-oxadiazol-5-yl)-N-((1-propylpyrrolidin-3-yl)methyl)piperidine-4-carboxamide] | + (+ >3 and <5)
COc1ccc(-c2noc(N3CCC(C(=O)NCC4CCN(CC=C(C)C)C4)CC3)n2)cc1 (stereo not drawn) [Compound 410, 1-(3-(4-methoxyphenyl)-1,2,4-oxadiazol-5-yl)-N-((1-(3-methylbut-2-en-1-yl)pyrrolidin-3-yl)methyl)piperidine-4-carboxamide] | ++ (++ ≥5 and <6)
COc1ccc(-c2noc(N3CCN(C(=O)NCCCN4CCC(Cc5ccccn5)CC4)CC3)n2)cc1 [Compound 248, 4-(3-(4-methoxyphenyl)-1,2,4-oxadiazol-5-yl)-N-(3-(4-(pyridin-2-ylmethyl)piperidin-1-yl)propyl)piperazine-1-carboxamide] | +++ (+++ ≥6)
COc1ccc(-c2noc(N3CCC(C(=O)NC4CCN(C)c5ccccc54)CC3)n2)cc1 (stereo not drawn) [Compound 302, 1-(3-(4-methoxyphenyl)-1,2,4-oxadiazol-5-yl)-N-(1-methyl-1,2,3,4-tetrahydroquinolin-4-yl)piperidine-4-carboxamide] | + (+ >3 and <5)
CCN(CC)CCCNC(=O)C1CCN(c2nc(-c3ccc(OC)cc3)no2)CC1 [Compound 113, N-(3-(diethylamino)propyl)-1-(3-(4-methoxyphenyl)-1,2,4-oxadiazol-5-yl)piperidine-4-carboxamide] | + (+ >3 and <5)
COc1ccc(-c2noc(N3CCC(C(=O)Nc4ccc(C)cc4)CC3)n2)cc1 [Compound 210, 1-(3-(4-methoxyphenyl)-1,2,4-oxadiazol-5-yl)-N-(p-tolyl)piperidine-4-carboxamide] | + (+ >3 and <5)
COc1ccc(-c2coc(N3CCC(C(=O)NCC4CCN(Cc5ccc(C)cc5)C4)CC3)n2)cc1 (stereo not drawn) [Compound 196, 1-(4-(4-methoxyphenyl)oxazol-2-yl)-N-((1-(4-methylbenzyl)pyrrolidin-3-yl)methyl)piperidine-4-carboxamide] | ++ (++ ≥5 and <6)
COc1ccc(-c2noc(N3CCC(C(=O)NC4(C5CCCCC5)CC4)CC3)n2)cc1 [Compound 292, N-(1-cyclohexylcyclopropyl)-1-(3-(4-methoxyphenyl)-1,2,4-oxadiazol-5-yl)piperidine-4-carboxamide] | + (+ >3 and <5)
Cc1ccc(CN2CC[C@@H](CNC(=O)C3CCN(c4nc(-c5ccc(Cl)cc5)no4)CC3)C2)cc1 [Compound 167, (S)-1-(3-(4-chlorophenyl)-1,2,4-oxadiazol-5-yl)-N-((1-(4-methylbenzyl)pyrrolidin-3-yl)methyl)piperidine-4-carboxamide] | +++ (+++ ≥6)
C#CCCC1(CCOc2cccc(-c3noc(N4CCC(C(=O)NCC5CCN(Cc6ccc(C)cc6)C5)CC4)n3)c2)N=N1 (stereo not drawn) [Compound 288, 1-(3-(3-(2-(3-(but-3-yn-1-yl)-3H-diazirin-3-yl)ethoxy)phenyl)-1,2,4-oxadiazol-5-yl)-N-((1-(4-methylbenzyl)pyrrolidin-3-yl)methyl)piperidine-4-carboxamide] | ++ (++ ≥5 and <6)
COc1ccc(-c2noc(N3CCN(C(=O)NCCCN4CCC(C)CC4)CC3)n2)cc1 [Compound 208, 4-(3-(4-methoxyphenyl)-1,2,4-oxadiazol-5-yl)-N-(3-(4-methylpiperidin-1-yl)propyl)piperazine-1-carboxamide] | ++ (++ ≥5 and <6)
COc1ccc(-c2noc(N3CCC(C(=O)NCC4CCN(C(C)CO)C4)CC3)n2)cc1 (stereo not drawn) [Compound 397, N-((1-(1-hydroxypropan-2-yl)pyrrolidin-3-yl)methyl)-1-(3-(4-methoxyphenyl)-1,2,4-oxadiazol-5-yl)piperidine-4-carboxamide] | − (− ≤3)
